Experimental data published in ChEMBL document CHEMBL3885881, “DrugMatrix”.

Organism: Rattus norvegicus
Test: DrugMatrix - Regimen: Daily Repeat
Assay type: toxicity, organism-based, Sprague-Dawley
Design: regimen Daily Repeat, gender Male, age 6-8 weeks
Settings: in vivo, po, route oral GAVAGE, […]; for ABSOLUTE BASOPHIL / ABSOLUTE EOSINOPHIL / ABSOLUTE LYMPHOCYTE / ABSOLUTE MONOCYTE / ABSOLUTE SEGMENTED NEUTROPHIL / BASOPHIL / EOSINOPHIL / ERYTHROCYTE COUNT / HEMATOCRIT / HEMOGLOBIN / LEUKOCYTE COUNT / LYMPHOCYTE / MEAN CORPUSCULAR HEMOGLOBIN / MEAN CORPUSCULAR HEMOGLOBIN CONCENTRATION / MEAN CORPUSCULAR VOLUME / MONOCYTE / NEUTROPHIL / NUCLEATED RED BLOOD CELLS / PLATELET COUNT: tissue Blood; for ALANINE AMINOTRANSFERASE / ALBUMIN / ALKALINE PHOSPHATASE / ASPARTATE AMINOTRANSFERASE / BLOOD UREA NITROGEN / CARBON DIOXIDE / CHLORIDE / CHOLESTEROL / CREATINE PHOSPHOKINASE / CREATININE / GLUCOSE / LACTATE DEHYDROGENASE / LIPASE / PHOSPHORUS / POTASSIUM / SODIUM / TOTAL BILIRUBIN / TOTAL PROTEIN / URIC ACID: tissue Plasma
[1] = 0 mg/kg, 72 h, dose level Control, time 3 day
[2] = 0 mg/kg, 120 h, dose level Control, time 5 day
[3] = 100 mg/kg, 72 h, dose level Low, time 3 day

CCn1cc(C(=O)O)c(=O)c2cc(F)c(N3CCNCC3)nc21 [ENOXACIN]
ABSOLUTE BASOPHIL [1]: 0 CELLS/uL
ABSOLUTE EOSINOPHIL [1]: 104.17 CELLS/uL
ABSOLUTE LYMPHOCYTE [1]: 14547 CELLS/uL
ABSOLUTE MONOCYTE [1]: 292 CELLS/uL
ABSOLUTE SEGMENTED NEUTROPHIL [1]: 1640.17 CELLS/uL
BASOPHIL [1]: 0%
EOSINOPHIL [1]: 0.67%
ERYTHROCYTE COUNT [1]: 5.35 x10E6/uL
HEMATOCRIT [1]: 33.67%
HEMOGLOBIN [1]: 13.38 G/DL
LEUKOCYTE COUNT [1]: 16.58 x10E3/uL
LYMPHOCYTE [1]: 87.5%
MEAN CORPUSCULAR HEMOGLOBIN [1]: 25.05 pg
MEAN CORPUSCULAR HEMOGLOBIN CONCENTRATION [1]: 39.78 G/DL
MEAN CORPUSCULAR VOLUME [1]: 62.97 fL
MONOCYTE [1]: 1.83%
NEUTROPHIL [1]: 10%
NUCLEATED RED BLOOD CELLS [1]: 0 /100WBC
PLATELET COUNT [1]: 1274.5 x10E3/uL
ALANINE AMINOTRANSFERASE [1]: 76.83 u/L
ALBUMIN [1]: 3.97 G/DL
ALKALINE PHOSPHATASE [1]: 347 u/L
ASPARTATE AMINOTRANSFERASE [1]: 97.17 u/L
BLOOD UREA NITROGEN [1]: 14.33 mg/dL
CARBON DIOXIDE [1]: 25.5 mmol/L
CHLORIDE [1]: 100.33 MEQ/L
CHOLESTEROL [1]: 68.67 mg/dL
CREATINE PHOSPHOKINASE [1]: 659.17 u/L
CREATININE [1]: 0.32 mg/dL
GLUCOSE [1]: 160.67 mg/dL
LACTATE DEHYDROGENASE [1]: 271.5 u/L
LIPASE [1]: 11.67 u/L
PHOSPHORUS [1]: 10.65 mg/dL
POTASSIUM [1]: 5.95 MEQ/L
SODIUM [1]: 139.65 MEQ/L
TOTAL BILIRUBIN [1]: 0.2 mg/dL
TOTAL PROTEIN [1]: 5.72 G/DL
URIC ACID [1]: 1.37 mg/dL
ABSOLUTE BASOPHIL [2]: 0 CELLS/uL
ABSOLUTE EOSINOPHIL [2]: 331.5 CELLS/uL
ABSOLUTE LYMPHOCYTE [2]: 15021.67 CELLS/uL
ABSOLUTE MONOCYTE [2]: 376.5 CELLS/uL
ABSOLUTE SEGMENTED NEUTROPHIL [2]: 3070.33 CELLS/uL
BASOPHIL [2]: 0%
EOSINOPHIL [2]: 1.83%
ERYTHROCYTE COUNT [2]: 5.24 x10E6/uL
HEMATOCRIT [2]: 33.22%
HEMOGLOBIN [2]: 13.2 G/DL
LEUKOCYTE COUNT [2]: 18.8 x10E3/uL
LYMPHOCYTE [2]: 79.67%
MEAN CORPUSCULAR HEMOGLOBIN [2]: 25.17 pg
MEAN CORPUSCULAR HEMOGLOBIN CONCENTRATION [2]: 39.73 G/DL
MEAN CORPUSCULAR VOLUME [2]: 63.38 fL
MONOCYTE [2]: 2%
NEUTROPHIL [2]: 16.5%
NUCLEATED RED BLOOD CELLS [2]: 0 /100WBC
PLATELET COUNT [2]: 1142.67 x10E3/uL
ALANINE AMINOTRANSFERASE [2]: 52.5 u/L
ALBUMIN [2]: 3.9 G/DL
ALKALINE PHOSPHATASE [2]: 284.5 u/L
ASPARTATE AMINOTRANSFERASE [2]: 81.33 u/L
BLOOD UREA NITROGEN [2]: 16 mg/dL
CARBON DIOXIDE [2]: 25.33 mmol/L
CHLORIDE [2]: 99.5 MEQ/L
CHOLESTEROL [2]: 74.83 mg/dL
CREATINE PHOSPHOKINASE [2]: 448.33 u/L
CREATININE [2]: 0.37 mg/dL
GLUCOSE [2]: 164.17 mg/dL
LACTATE DEHYDROGENASE [2]: 290.67 u/L
LIPASE [2]: 6.83 u/L
PHOSPHORUS [2]: 11.5 mg/dL
POTASSIUM [2]: 6.28 MEQ/L
SODIUM [2]: 139.5 MEQ/L
TOTAL BILIRUBIN [2]: 0.13 mg/dL
TOTAL PROTEIN [2]: 5.55 G/DL
URIC ACID [2]: 1.12 mg/dL
ABSOLUTE BASOPHIL [3]: 0 CELLS/uL
ABSOLUTE EOSINOPHIL [3]: 0 CELLS/uL
ABSOLUTE LYMPHOCYTE [3]: 5797 CELLS/uL
ABSOLUTE MONOCYTE [3]: 86.67 CELLS/uL
ABSOLUTE SEGMENTED NEUTROPHIL [3]: 549.67 CELLS/uL
BASOPHIL [3]: 0%
EOSINOPHIL [3]: 0%
ERYTHROCYTE COUNT [3]: 5.41 x10E6/uL
HEMATOCRIT [3]: 34.57%
HEMOGLOBIN [3]: 13.57 G/DL
LEUKOCYTE COUNT [3]: 6.43 x10E3/uL
LYMPHOCYTE [3]: 90%
MEAN CORPUSCULAR HEMOGLOBIN [3]: 25.13 pg
MEAN CORPUSCULAR HEMOGLOBIN CONCENTRATION [3]: 39.27 G/DL
MEAN CORPUSCULAR VOLUME [3]: 64.03 fL
MONOCYTE [3]: 1.33%
NEUTROPHIL [3]: 8.67%
NUCLEATED RED BLOOD CELLS [3]: 0 /100WBC
PLATELET COUNT [3]: 1201 x10E3/uL
ALANINE AMINOTRANSFERASE [3]: 52.33 u/L
ALBUMIN [3]: 3.9 G/DL
ALKALINE PHOSPHATASE [3]: 346.33 u/L
ASPARTATE AMINOTRANSFERASE [3]: 78 u/L
BLOOD UREA NITROGEN [3]: 14 mg/dL
CARBON DIOXIDE [3]: 24.67 mmol/L
CHLORIDE [3]: 103 MEQ/L
CHOLESTEROL [3]: 70.33 mg/dL
CREATINE PHOSPHOKINASE [3]: 221.67 u/L
CREATININE [3]: 0.12 mg/dL
GLUCOSE [3]: 172.67 mg/dL
LACTATE DEHYDROGENASE [3]: 139.33 u/L
LIPASE [3]: 10 u/L
PHOSPHORUS [3]: 11.1 mg/dL
POTASSIUM [3]: 5.8 MEQ/L
SODIUM [3]: 142.37 MEQ/L
TOTAL BILIRUBIN [3]: 0.13 mg/dL
TOTAL PROTEIN [3]: 5.57 G/DL
URIC ACID [3]: 1.63 mg/dL
